Measured values from patent US7527916B2, “Photopolymerizable composition” (Agfa Graphics, N.V., priority 2003, dated 2009).

Experiment: Solubility test in methyl ethyl ketone
Type: physicochemical
Settings: 1.5 g sensitiser in 100 g methyl ethyl ketone, stirred at room temperature (20° C.) for a maximum of 24 hours
Method: Solubility Test in Methyl Ethyl Ketone
1.5 g of the sensitiser is dissolved in 100g of methyl ethyl ketone and allowed to stir at room temperature (20° C.) for a maximum of 24 hours. If the sensitiser is completely dissolved in the methyl ethyl ketone, the sensitiser passes the solubility test and is considered as a preferred sensitiser according to the present invention.

Row | SMILES | Solubility test MEK (15 g/kg)
1 | CCC(C)Oc1c(OC)cc(C=Cc2ccc(C=Cc3cc(OC)c(OC(C)CC)c(OC)c3)cc2)cc1OC (centres unmarked) [(D), 1,4-distyryl-(3,5-trimethoxy, 4-(2-butyl)oxy)benzene] | OK (If the sensitiser is completely dissolved in the methyl ethyl ketone, the sensitiser passes the solubility test)
2 | CCCCC(CC)COc1c(OC)cc(C=Cc2ccc(C=Cc3cc(OC)c(OCC(CC)CCCC)c(OC)c3)cc2)cc1OC (centres unmarked) [(F), 1,4-distyryl-(3,5-trimethoxy, 4-(1-(2-ethyl)hexyl)oxy)benzene] | OK (If the sensitiser is completely dissolved in the methyl ethyl ketone, the sensitiser passes the solubility test)
